# Source: US20110224297A1, “Methods of administering prostratin and structural analogs thereof” (priority 2008, published 2011)
# Where two headings read alike, the source gives them in different places.
# Tests used:
# [1] = tested on: Escherichia coli tester strain WP2uvrA; assay: Escherichia coli/mammalian-microsome reverse mutation assay with confirmatory assay; format: cell-based; settings: 100 to 5000 μg per plate; presence or absence of S9
# Source text: The objective of this study was to evaluate the test article, prostratin, for the ability to induce reverse mutations either in the presence or absence of mammalian microsomal enzymes at 1) the histidine locus in the genome of several strains of Salmonella typhimurium and at 2) the tryptophan locus of Escherichia coli tester strain WP2uvrA.
# The doses tested in the mutagenicity assay were selected based on the results of a dose range finding study using tester strains TA100 and WP2uvrA and ten doses of test article ranging from 6.67 to 5000 μg per plate, one plate per dose, both in the presence and absence of S9 mix.
# The tester strains used in the mutagenicity assay were Salmonella typhimurium tester strains TA98, TA100, TA1535, and TA1537 and Escherichia coli tester strain WP2uvrA. The assay was conducted with five doses of test article in both the presence and absence of S9 mix along with concurrent vehicle and positive controls using three plates per dose. The doses tested were 100, 333, 1000, 3330, and 5000 μg per plate in both the presence and absence of S9 mix. The results of the initial mutagenicity assay were confirmed in an independent experiment.
# rats = assay: Tolerability of intravenous infusion and oral doses in rats; format: in vivo
# Description: In order to find out the best route of administration and the correct concentration of prostratin, the drug was administered as an intravenous infusion over three hours as well as a single and twice oral administration to 3 groups of rats. The goal of this experiment was to find out if greater amounts of prostratin can be administered over a longer period of time. This would enable obtaining median higher concentrations in the blood for a longer period of time that would be close to effective concentration found in in vitro studies.
# The oral doses were estimated based on a maximum tolerated i.v. dose of 0.4 mg/kg from the DART work in rats, but an oral bio-availability of only 29%. Thus, the maximum tolerated i.v. dose was multiplied by three (i.e., 0.4 mg/kg times 3 equals 1.2 mg/kg as the equivalent oral dose). The purpose of the two lower oral doses (both 0.8 mg/kg, therefore a total of 1.6 mg/kg) and the infusion (0.8 mg/kg over three hours) was to see if the maximum tolerated dose could be exceeded by dividing up the oral into two times 75% the max tolerated dose or as an infusion over 3 hours.
# [2] = tested on: polychromatic erythrocytes (PCE) in CD® (SD) IGS BR rat bone marrow; assay: In vivo rat bone marrow micronucleus assay
# Description: (§1) The objective of this study was to evaluate the test article, prostratin, for in vivo clastogenic activity and/or disruption of the mitotic apparatus by detecting micronuclei in polychromatic erythrocytes (PCE) in CD® (SD) IGS BR rat bone marrow.
# (§2) In the dose range-finding study, the test article was dissolved in ethanol followed by dilution with 0.9% Sodium Chloride for Injection to achieve a final ethanol:saline vehicle (0.8:99.2 v/v) at the appropriate dosing concentrations. The formulations were administered once by oral gavage to three males and three females per dose level. The animals were dosed at 0.4, 0.5, 2, or 5 mg/kg and observed for up to 2 days after dosing for toxic signs and/or mortality.
# (§3) Based on the results of the dose range-finding study, the maximum tolerated dose was estimated to be 2.4 mg/kg in the male animals and 2 mg/kg in the female animals. In the micronucleus assay, the test article was dissolved in ethanol followed by dilution with 0.9% Sodium Chloride for Injection to achieve a final ethanol:saline vehicle (0.8:99.2 v/v) at the appropriate dosing concentrations.
# (§4) Bone marrow was extracted and at least 2000 PCEs per animal were analyzed for the frequency of micronuclei. Cytotoxicity was assessed by scoring the number of PCEs and normochromatic erythrocytes (NCEs) in at least the first 500 total erythrocytes for each animal.
# [3] = In vivo rat bone marrow micronucleus assay; design: species or system CD® (SD) IGS BR rat; settings: CD (SD) IGS BR, rat, in vivo, once by oral gavage, dose range-finding study, read-out: maximum tolerated dose
# Description: as §1, §2, §3, §4
# [4] = Pharmacokinetic studies in mice; format: in vivo, CD2F1 mice
# Description: Studies were conducted in CD2F1 mice using both the i.p. route (1.9 mg/kg) and the i.v. route (0.76 mg/kg). The vehicle was 10% DMSO: 10% Cremophor: 80%:0.9% saline for both routes. Doses used were preciously determined as maximally tolerated. Drug was detected out to 4 hr but was only quantifiable out to 3 hr post drug administration (see FIG. 5A, B). Data are presented as mean±SD where n=5. Data that were detected beyond 3 hr post drug administration are shown as “BLQ” (below the limit of quantification of the validated assay). Data were fit using 1 and 2 compartment pharmacokinetic models using ADAPT II computer program. In general the 2-compartment model provided a better fit for the data than did a 1-compartment model (Table 2). […] For the two-compartment model the situation was reversed (i.e. more variance for the model predicted PK parameters with lower residual values for the individual plasma concentration data).
# [5] = Dose-range finding study in monkeys and determination of MTD; format: in vivo, rhesus macaque monkeys; settings: rhesus monkey, in vivo
# Description: After a suitable wash-out period (15-20 days), monkeys that previously received 0.1 mg/kg, were administered a dose of 0.6 mg/kg, and those that previously received 0.4 mg/kg, were administered a second dose of 0.4 mg/kg. Blood was collected as before for clinical pathology and cytokine assay analysis. There was no mortality in this study. However both animals receiving 0.6 mg/kg prostratin required more time (2-4 times as much) to recover from Ketamine (used as a chemical restraint while weighing and dosing) after the second dosing compared with the initial doses. On day 3, all monkeys had elevated (2-3 fold) fibrinogen levels and there was evidence of dose-dependent hepatotoxicity.
# [6] = mice, IP (1.9 mg/kg), 2-compartment model
# [7] = mice, IV (0.76 mg/kg), 2-compartment model
# [8] = mice, i.p. 1.9 mg/kg and i.v. 0.76 mg/kg
structure (smiles),measurement,setting,value
"CC(=O)O[C@@]12C[C@@H](C)[C@@]3(O)[C@@H](C=C(CO)C[C@]4(O)C(=O)C(C)=C[C@@H]34)[C@@H]1C2(C)C [prostratin, 12-deoxyphorbol 13-acetate]",mean number of revertants per plate,[1],did not cause a positive increase
same,Results (tolerability),"rats; female rats, 0.8 mg/kg I.V. infusion, 3 hours",All animals died
same,Results (tolerability),"rats; female rats, 1.2 mg/kg, one oral dose",2 out of 3 animals died
same,Results (tolerability),"rats; female rats, 1.8 mg/kg first oral dose followed by 1.0 mg/kg after 4 hours","2 died after first dose,"
same,Results (tolerability),"rats; male rats, 1.8 mg/kg, two oral doses 4 hours apart",All animals are alive
same,Results (tolerability),"rats; male rats, 2.4 mg/kg, one oral dose",All animals are alive
same,micronucleated PCEs,"[2]; 0.5, 1, or 2 mg/kg for females, 0.6, 1.2, and 2.4 mg/kg for males",did not induce statistically significant increases
same,cytotoxicity to the bone marrow (PCE:NCE ratios),[2]; any dose of the test article,not cytotoxic
same,clinical observations,"[2]; female animals, 2 mg/kg, approximately one hour post-dose, mortality, irregular respiration, piloerection, and/or recumbency",signs of clinical toxicity
same,"rat bone marrow micronucleus assay, overall","[2]; rat, in vivo",negative
same,MTD,[3]; female rats,2 mg/kg
same,MTD,[3]; male rats,2.4 mg/kg
same,clearance,"[4]; CD2F1, mouse, plasma, intraperitoneal and intravenous, mice, both the i.p and i.v. routes",200 to 250 mL/min/kg
same,half-life,"[4]; CD2F1, mouse, plasma, ip, 1.9 mg/kg, mice, IP (1.9 mg/kg), 2-compartment model, read-out: T1/2 a (converted)",20.4 min
same,half-life,"[4]; CD2F1, mouse, plasma, ip, 1.9 mg/kg, mice, IP (1.9 mg/kg), 2-compartment model, read-out: T1/2 b (converted)",12600 min
same,half-life,"[4]; CD2F1, mouse, plasma, ip, 1.9 mg/kg, mice, IP (1.9 mg/kg), read-out: T1/2 [1-compartment model] (converted)",20.4 min
same,half-life,"[4]; CD2F1, mouse, plasma, iv, 0.76 mg/kg, mice, IV (0.76 mg/kg), 2-compartment model, read-out: T1/2 a (converted)",27.6 min
same,half-life,"[4]; CD2F1, mouse, plasma, iv, 0.76 mg/kg, mice, IV (0.76 mg/kg), 2-compartment model, read-out: T1/2 b (converted)",1170 min
same,half-life,"[4]; CD2F1, mouse, plasma, iv, 0.76 mg/kg, mice, IV (0.76 mg/kg), read-out: T1/2 [1-compartment model] (converted)",31.8 min
same,CLt,[4]; [6],219.2 mL/min/kg
same,Vc,[4]; [6],11.03 L/kg
same,CLt,[4]; [7],252.7 mL/min/kg
same,Vc,[4]; [7],17.32 L/kg
same,time out to which drug was detected in plasma,[4]; [8],4 h
same,time out to which drug was quantifiable in plasma,[4]; [8],3 h
same,maximally tolerated dose,"[4]; mice, i.p. route",1.9 mg/kg
same,maximally tolerated dose,"[4]; mice, i.v. route",0.76 mg/kg
same,cumulative urinary excretion,"[4]; pooled samples from five mice dosed i.p. (1.9 mg/kg), up to 24 hours",< 5 % of the administered dose
same,MTD at 15 days,"[5]; both sexes, iv, monkeys, single bolus i.v. dose, read-out: MTD",0.4 to 0.6 mg/kg
same,MTD at 15 days,"[5]; intravenous, as restated in Example 13, read-out: MTD later found in monkeys at NIH",0.2 to 0.4 mg/kg
